Test system: rabbit anti-B. anthracis spore polyclonal IgG antibodies
Format: binding

| Compound | IgG signal detected by glycan arrays (n = 3) Mean | further results |
| --- | --- | --- |
| CO[C@@H]1O[C@@H](C)[C@H](O)[C@@H](O[C@@H]2O[C@@H](C)[C@H](O)[C@@H](O)[C@H]2O)[C@H]1O [Saccharide 24, Methyl <-L-rhamnopyranosyl-(1→3)-<-L-rhamnopyranoside, reference compound] | 1.02 |  |
| CO[C@H]1O[C@H](CO)[C@@H](O)[C@H](O[C@H]2O[C@H](CO)[C@H](O)[C@H](O)[C@H]2O[C@@H]2O[C@@H](C)[C@H](O)[C@@H](O)[C@H]2O)[C@H]1NC(C)=O [Saccharide 23, Methyl <-L-rhamnopyranosyl-(1→2)-<-D-galactopyranosyl-(1→3)-2-acetamido-2-deoxy-<-D-glucopyranoside] | 1.01 |  |
| COC(=O)CCCCCO[C@H]1O[C@@H](C)[C@H](O)[C@@H](O)[C@H]1O[C@@H]1O[C@@H](C)[C@H](O)[C@@H](O)[C@H]1O [Saccharide 19, 5-(Methoxycarbonyl)pentyl α-L-rhamnopyranosyl-(1→2)-β-L-rhamnopyranoside] | 0.98 |  |
| CO[C@H]1O[C@H](C)[C@@H](NC(=O)[C@@H](O)CCO)[C@H](O)[C@@H]1O[C@H]1O[C@H](C)[C@@H](NC(=O)[C@@H](O)CCO)[C@H](O)[C@@H]1O[C@H]1O[C@H](C)[C@@H](NC(=O)[C@@H](O)CCO)[C@H](O)[C@@H]1OC [Saccharide 27, Methyl 2-O-methyl-4,6-dideoxy-4-(3-deoxy-L-glycero-tetronamido)-<-D-mannopyranosyl-(1→2)-4,6-dideoxy-4-(3-deoxy-L-glycero-tetronamido)-<-D-mannopyranosyl-(1→2)-4,6-dideoxy-4-(3-deoxy-L-glycero-tetronamido)-<-D-mannopyranoside] | 1.01 |  |
| COC(=O)CCCCCO[C@H]1O[C@@H](C)[C@H](O)[C@@H](O)[C@H]1O[C@@H]1O[C@@H](C)[C@H](O)[C@@H](O[C@@H]2O[C@@H](C)[C@H](O)[C@@H](O)[C@H]2O)[C@H]1O [Saccharide 20, 5-(Methoxycarbonyl)pentyl α-L-rhamnopyranosyl-(1→3)-α-L-rhamnopyranosyl-(1→2)-β-L-rhamnopyranoside] | 0.95 |  |
| COC(=O)CCCCCO[C@@H]1O[C@@H](C)[C@H](O)[C@@H](O[C@@H]2O[C@@H](C)[C@H](O)[C@@H](O)[C@H]2O)[C@H]1O [Saccharide 16, 5-(Methoxycarbonyl)pentyl α-L-rhamnopyranosyl-(1→3)-α-L-rhamnopyranoside] | 1.00 |  |
| O=C[C@H](O)[C@H](O)[C@@H](O)[C@@H](O)CO [Saccharide 13, L-Mannose] | 1.06 |  |
| COC(=O)CCCCCO[C@@H]1O[C@@H](C)[C@H](O)[C@@H](O)[C@H]1O[C@@H]1O[C@@H](C)[C@H](O)[C@@H](O)[C@H]1O [Saccharide 18, 5-(Methoxycarbonyl)pentyl α-L-rhamnopyranosyl-(1→2)-α-L-rhamnopyranoside] | 1.26 |  |
| COC(=O)CCCCCO[C@H]1O[C@@H](C)[C@H](O)[C@@H](O)[C@H]1O [Saccharide 15, 5-(Methoxycarbonyl)pentyl β-L-rhamnopyranoside] | 0.95 |  |
| O=C[C@H](O)[C@@H](O)[C@@H](O)[C@H](O)CO [Saccharide 8, D-Galactose] | 1.06 |  |
| O=C[C@H](O)[C@@H](O)[C@@H](O)CO [Saccharide 12, L-Arabinose] | 1.03 |  |
| Streptococcus pneumoniae type 23 capsular polysaccharide [Saccharide 35] |  | IgG reactivities (Ratio of Sg./bg.) Mean: 12.35; antibody reactivity detected by glycan arrays: positive spots |
| CC(=O)N[C@@H](C=O)[C@@H](O)[C@@H](O)[C@H](O)CO [Saccharide 11, N-acetyl-2-amino-2-deoxy-D-galactose] | 1.03 |  |
| [Methyl 2-O-methyl-4,6-dideoxy-4-(3-deoxy-L-glycero-tetronamido)-<-D-mannopyranosyl-(1→2)-tris[4,6-dideoxy-4-(3-deoxy-L-glycero-tetronamido)-<-D-mannopyranosyl-(1→2)]-4,6-dideoxy-4-(3-deoxy-L-glycero-tetronamido)-<-D-mannopyranoside]10-BSA [Saccharide 33] | 1.37 |  |
| O=C[C@H](O)[C@@H](O)[C@H](O)[C@H](O)CO [Saccharide 9, D-Glucose] | 1.04 |  |
| CO[C@H]1O[C@H](C)[C@@H](NC(=O)[C@@H](O)CCO)[C@H](O)[C@@H]1O[C@H]1O[C@H](C)[C@@H](NC(=O)[C@@H](O)CCO)[C@H](O)[C@@H]1O[C@H]1O[C@H](C)[C@@H](NC(=O)[C@@H](O)CCO)[C@H](O)[C@@H]1O[C@H]1O[C@H](C)[C@@H](NC(=O)[C@@H](O)CCO)[C@H](O)[C@@H]1OC [Saccharide 28, Methyl 2-O-methyl-4,6-dideoxy-4-(3-deoxy-L-glycero-tetronamido)-<-D-mannopyranosyl-(1→2)-bis-[4,6-dideoxy-4-(3-deoxy-L-glycero-tetronamido)-<-D-mannopyranosyl-(1→2)]-4,6-dideoxy-4-(3-deoxy-L-glycero-tetronamido)-<-D-mannopyranoside] | 1.07 |  |
| [Methyl 2-O-methyl-4,6-dideoxy-4-(3-deoxy-L-glycero-tetronamido)-<-D-mannopyranosyl-(1→2)-bis[4,6-dideoxy-4-(3-deoxy-L-glycero-tetronamido)-<-D-mannopyranosyl-(1→2)]-4,6-dideoxy-4-(3-deoxy-L-glycero-tetronamido)-<-D-mannopyranoside]10-BSA [Saccharide 32] | 1.20 |  |
| C[C@H](O)[C@H](O)[C@@H](O)[C@@H](O)C=O [Saccharide 6, L-Rhamnose] | 1.03 |  |
| CO[C@H]1O[C@H](CO)[C@H](O)[C@H](O)[C@H]1O[C@@H]1O[C@@H](C)[C@H](O)[C@@H](O[C@@H]2O[C@@H](C)[C@H](O)[C@@H](O)[C@H]2O)[C@H]1O [Saccharide 25, Methyl <-L-rhamnopyranosyl-(1→3)-<-L-rhamnopyranosyl-(1→2)-<-D-galactopyranoside, reference compound] | 1.02 |  |
| [Methyl 2-O-methyl-4,6-dideoxy-4-(3-deoxy-L-glycero-tetronamido)-<-D-mannopyranosyl-(1→2)-4,6-dideoxy-4-(3-deoxy-L-glycero-tetronamido)-<-D-mannopyranosyl-(1→2)-4,6-dideoxy-4-(3-deoxy-L-glycero-tetronamido)-<-D-mannopyranoside]5-BSA [Saccharide 31] | 1.53 |  |
| Methyl 2-O-methyl-4,6-dideoxy-4-(3-deoxy-L-glycero-tetronamido)-<-D-mannopyranosyl-(1→2)-tetrakis[4,6-dideoxy-4-(3-deoxy-L-glycero-tetronamido)-<-D-mannopyranosyl-(1→2)]-4,6-dideoxy-4-(3-deoxy-L-glycero-tetronamido)-<-D-mannopyranoside [Saccharide 30] | 1.67 |  |

From patent US20150265691A1 (priority 2006, published 2015)
